In PMC10823733, “Promising antibacterial efficacy of arenicin peptides against the emerging opportunistic pathogen Mycobacterium abscessus” (Journal of Biomedical Science, 2024):
Where two headings read alike, the source gives them in different places. Positions of bridges follow the written chain, without caps; N, C: chain ends. Non-standard residues stand in square brackets, D forms with d. Residues, ends and D or L forms follow the SMILES beside them. Abu = CC[C@H](N)C(=O)O

Assays:
human erythrocytes = type: cell-based; details: for HC10 / HC50: red cells of human, 1 h
Protocol: The hemolytic activity of each peptide was determined as previously described. Briefly, human erythrocytes (red blood cells, hRBC; Divbioscience, Ulvenhout, Netherlands) were washed 2-times with sterile phosphate buffered saline (PBS; Thermo Fisher Scientific) and pelleted by centrifugation at 800 rpm for 5 min; then resuspended in DMEM^FBS to a final erythrocyte concentration of 8% (v/v). Then, 100 µL of this hRBC solution was distributed to each well of sterile 96-well flat-bottom microplates (Greiner Bio-One) containing serial two-fold dilutions of arenicin, arenicin-Abu derivative or controls in DMEM^FBS to a final volume of 200 µL. After 1 h incubation at 37 °C, microplates were centrifuged at 800 rpm for 5 min. Then, 100 µL of supernatant were carefully transferred to a new 96-well microplate, and OD405 corresponding to the release of hemoglobin was measured using a microplate reader (Biotek, Synergy Mx, Colmar, France). DMEM^FBS and Triton-X100 at 0.1% (v/v) were used as negative (i.e., 0% hemolysis) and positive (i.e., 100% hemolysis) controls, respectively. The concentration of peptide leading to 10% and 50% of hemolysis compared to the positive control was defined as the HC10 and HC50, respectively, and was determined by fitting the dose–response curves in Kaleidagraph 4.2 software (Synergy Software). All experiments were done in triplicate.

[1] = type: cell-based, human
Protocol: (§1) The toxicity of each peptide was evaluated on human cell lines using a resazurin assay as previously described. Human lung epithelial cells BEAS-2B (ATCC CRL-9609), liver cells HepG2 (ATCC HB-8065), and kidney cells A498 (ATCC HTB-44) were used. All cells were cultured in Dulbecco's modified essential medium (DMEM) supplemented with 10% heat-inactivated fetal calf serum (FBS, Thermo Fisher Scientific), and 1% L-glutamine (Thermo Fisher Scientific) (DMEM^FBS) at 37 °C in a 5% CO2 incubator to subconfluent concentrations. Cells were detached with trypsin–EDTA solution (Thermo Fisher Scientific), and around 1 × 10^4 cells/well were seeded in 96-well flat-bottom microplates (Greiner Bio-One) with a lid, and cultured for additional 48–72 h at 37 °C and 5% CO2 until cell confluence. The medium was removed, and 100 µL of serial two-fold dilutions of the peptides in DMEM^FBS were added to each well. Following a 48 h-incubation period at 37 °C and 5% CO2, cell viability was evaluated using the resazurin assay as described above. Fluorescence of the resazurin metabolite resorufin (λex/λem = 530/590 nm) was measured after 2 h incubation at 37 °C and 5% CO2 in the dark, with a microplate reader (Biotek, Synergy Mx, Colmar, France). The cytotoxic concentration of peptide leading to 50% cell death as compared to the control was defined as the CC50, and was determined by fitting the RFU% sigmoidal dose–response curves in Kaleidagraph 4.2 software (Synergy Software). All experiments were conducted in triplicate.

A498 cells = assay: Cytotoxic assay on human cells (resazurin); type: cell-based
Protocol: as §1

[2] = type: cell-based, human; remark: listed apart in the source
Protocol: as §1

M. abscessus S and R = type: cell-based, Mycobacterium abscessus
Protocol: Mycobacterium abscessus S and R strains (CIP 104536^ T) were grown in Middlebrook 7H9 medium supplemented with 0.05% (v/v) Tween 80, 0.2% (v/v) glycerol and 10% (v/v) oleic acid–albumin–dextrose–catalase (OADC enrichment; BD Difco) (7H9-S^OADC) at 37 °C under stirring (200 rpm). We used Ar-1 (RWC^3VYAYVRVRGVLVRYRRC^20W) and Ar-1-Abu, in which the cysteines in position 3 and 20 were replaced by alpha-amino-n-butyric acid (Abu) residues. […]
For determining the antimicrobial activity of the different peptides, the Middlebrook 7H9 broth microdilution method was used in sterile 96-well flat-bottom Greiner Bio-One polypropylene microplates with lid (Thermo Fisher Scientific) using the resazurin microtiter assay (REMA). […] Fluorescence of the metabolite resorufin (λex/λem = 530/590 nm) was measured using a Tecan Spark 10 M ™ multimode microplate reader (Tecan Group Ltd, France). Relative fluorescence units (RFU) were defined as: RFU% = (test well FU/mean FU of control B wells) × 100. MIC50 and MIC90 values were determined by fitting the RFU% sigmoidal dose–response curves in Kaleidagraph 4.2 software (Synergy Software, Reading, PA). […]

M. abscessus R = assay: Induction of resistance assay; type: cell-based, Mycobacterium abscessus; details: after 20–30 days of exposure
Protocol: (§2) Induction of bacterial resistance by Ar-1 was achieved by exposure of M. abscessus S and R to Ar-1 or to the control antibiotic clarithromycin (CLR) for 42 consecutive days, and with repeated broth microdilution susceptibility testing and subsequent MIC determination. After each MIC determination, the well containing the highest concentration of Ar-1 or CLR that allows bacterial growth was diluted 1:1000 in 7H9-S^OADC and used as inoculum for the next MIC assay with fresh amounts of Ar-1 or CLR.

M. abscessus S = assay: Induction of resistance assay; type: cell-based, Mycobacterium abscessus; details: after 20–30 days of exposure
Protocol: as §2

With `CC[C@H](NC(=O)[C@H](CCCNC(=N)N)NC(=O)[C@H](CCCNC(=N)N)NC(=O)[C@H](Cc1ccc(O)cc1)NC(=O)[C@H](CCCNC(=N)N)NC(=O)[C@@H](NC(=O)[C@H](CC(C)C)NC(=O)[C@@H](NC(=O)CNC(=O)[C@H](CCCNC(=N)N)NC(=O)[C@@H](NC(=O)[C@H](CCCNC(=N)N)NC(=O)[C@@H](NC(=O)[C@H](Cc1ccc(O)cc1)NC(=O)[C@H](C)NC(=O)[C@H](Cc1ccc(O)cc1)NC(=O)[C@@H](NC(=O)[C@H](CC)NC(=O)[C@H](Cc1c[nH]c2ccccc12)NC(=O)[C@@H](N)CCCNC(=N)N)C(C)C)C(C)C)C(C)C)C(C)C)C(C)C)C(=O)N[C@@H](Cc1c[nH]c2ccccc12)C(=O)O` [Ar-1-Abu] (H-RW[Abu]VYAYVRVRGVLVRYRR[Abu]W-OH) the “hemolytic activity on human erythrocytes (in words, considering HC10)” value (human erythrocytes) was “totally inactive”, the HC10 (human erythrocytes) was > 100 µM and the HC50 (human erythrocytes) was > 100 µM. The CC50 [1] was > 100 µM, the “toxicity towards kidney A498 cells (in words)” value (A498 cells) was “nontoxic” and the CC50 [2] was > 100 µM.
In the case of `CC(C)C[C@@H]1NC(=O)[C@H](C(C)C)NC(=O)CNC(=O)[C@H](CCCNC(=N)N)NC(=O)[C@H](C(C)C)NC(=O)[C@H](CCCNC(=N)N)NC(=O)[C@H](C(C)C)NC(=O)[C@H](Cc2ccc(O)cc2)NC(=O)[C@H](C)NC(=O)[C@H](Cc2ccc(O)cc2)NC(=O)[C@H](C(C)C)NC(=O)[C@@H](NC(=O)[C@H](Cc2c[nH]c3ccccc23)NC(=O)[C@@H](N)CCCNC(=N)N)CSSC[C@@H](C(=O)N[C@@H](Cc2c[nH]c3ccccc23)C(=O)O)NC(=O)[C@H](CCCNC(=N)N)NC(=O)[C@H](CCCNC(=N)N)NC(=O)[C@H](Cc2ccc(O)cc2)NC(=O)[C@H](CCCNC(=N)N)NC(=O)[C@H](C(C)C)NC1=O` [Ar-1] (H-RWCVYAYVRVRGVLVRYRRCW-OH; disulfide 3-20), the HC10 (human erythrocytes) is reported as 20.2 ± 1.8 µM, the HC50 (human erythrocytes) is reported as > 100 µM and the CC50 [1] is reported as > 100 µM. For the same molecule, the “toxicity towards kidney A498 cells (in words)” value (A498 cells) was “nontoxic”, the CC50 [2] was > 100 µM and the “mean MIC50” value (M. abscessus S and R) was 11.5 ± 1.0 µM.
With `CC[C@H]1OC(=O)[C@H](C)[C@@H](O[C@H]2C[C@@](C)(OC)[C@@H](O)[C@H](C)O2)[C@H](C)[C@@H](O[C@@H]2O[C@H](C)C[C@H](N(C)C)[C@H]2O)[C@](C)(OC)C[C@@H](C)C(=O)[C@H](C)[C@@H](O)[C@]1(C)O` [CLR, clarithromycin] the “increase in MIC90 values” (M. abscessus R) was 32 fold and the “increase in MIC90 values” (M. abscessus S) was 32 fold.
